Tested on: A549 lung cancer cells
Assay: AnnexinV apoptosis analysis in A549 cells with mTOR inhibitor
Assay type: cell-based
Method: A549 cells (ATCC #CCL185) and MEFs were seeded at a concentration of 2.5×10^5 cells/mL (i.e., 750,000 cells per 6 cm dish), grown overnight (18 hrs) and treated as indicted in the figure legends. Unless otherwise indicated, “starvation” is EBSS and “control” is DMEM with full serum for indicated timepoints. Samples for western blot were washed once in 1× ice cold PBS and lysed in boiling SDS lysis buffer (10 mM Tris […], 100 mM NaCl, 1% SDS). After trituration, lysates were equilibrated for protein levels using the BCA method (Pierce) and resolved on 8 to 15% SDS-PAGE gels, depending on the size of the protein. PVDF membranes were probed with indicated antibodies overnight according to the manufacturers instructions.
For flow cytometry analysis, cells were collected at the appropriate time point, washed once in PBS, trypsinized and pelleted. For Annexin V staining, cells were washed in 1× Annexin V buffer and treated as described by the Annexin V staining protocol (BD Pharmingen, San Diego, Calif.). Briefly, cells were resuspended in Annexin V buffer to a concentration of one million per mL, 100,000 cells were then stained with 5 μL of phycoerythrin (PE)-conjugated Annexin V antibody (BD Pharmingen, San Diego, Calif.) and 5 μL of 7-amino-actinomycin D (7AAD) and then incubated at room temperature for 15 minutes. 400 μL of Annexin V buffer was then added to each sample with gentle mixing. Stained cells were analyzed using a FACScan flow cytometer (Becton Dickinson, San Jose, Calif.). Flow cytometry data was analyzed using FlowJo 8.6 software (Tree Star Inc., Ashland, Oreg.).
There has been great interest in the role of autophagy in the survival of tumor cells, particular tumor cells faced with metabolic stress from chemotherapies or targeted therapeutics. We next examined whether compound 14 would promote apoptosis in tumor cells similar to the MEFs, selectively under conditions in which autophagy is actively engaged. […] Given that mTOR activity is a dominant regulator of ULK1 activity, and we previously noted that treatment of cells with mTOR catalytic inhibitors was sufficient to induce ULK1 activity, we examined the effect of adding in the ULK1 inhibitor in the context of treatment with mTOR catalytic inhibitors. Using a cell line well-established to be sensitive to mTORC1 inhibition, A549 lung cancer cells, we treated with escalating doses of ULK1 inhibitor while keeping a constant cytostatic growth arrest-inducing 1 micromolar dose of the mTOR catalytic inhibitor AZD8055. We observed that 5 μM compound 14 in combination with AZD8055 triggered apoptosis in 22% of A549 cells compared to 9% of the 5 μM compound 14 alone or 6% of those cells treated with AZD8055 alone. […]

## CNC(=O)c1ccccc1Nc1nc(Nc2cc(OC)c(OC)c(OC)c2)ncc1Br [compound 14, 2-(5-bromo-2-(3,4,5-trimethoxyphenylamino)pyrimidin-4-ylamino)-N-methylbenzamide]
5 μM compound 14 alone
  apoptosis, % of A549 cells: 9%
5 μM compound 14 in combination with 1 micromolar AZD8055
  apoptosis, % of A549 cells: 22%
10 or 20 μM compound 14 with AZD8055
  induction of Annexin-V+ apoptotic A549 cells: even more dramatically heightened

Source: patent publication US10266549B2, “ULK1 inhibitors and methods using same” (SALK INSTITUTE FOR BIOLOGICAL STUDIES, priority 2014, dated 2019)
